Earlier results on two compounds are cited in patent US9173857B2, “Controlled dose drug delivery system” (Shire LLC, priority 2006, dated 2015).

Molecules are shown by their SMILES.

The conditions of data set [1]: pulsatile capsule with release after a nominal 5-hr period; majority of subjects.
The conditions of data set [2]: wax-surfactant coating, higher coating level (60%).

On to `C[C@H](CS)C(=O)N1CCC[C@H]1C(=O)O` [captopril], for which the “amounts of the drug observed in the blood” value in data set [1] is given as “no measurable amounts”.

In the case of `Cn1c(=O)c2[nH]cnc2n(C)c1=O` [theophylline], in data set [2], the “lag time of drug release” value is reported as “two-hour” and the “time required for complete release after the lag time” value is listed as “three hours”.
